Measurements as given in patent US20180028681A1, “COMBINATION THERAPY USING A CD19-ADC AND VINCRISTINE” (SEATTLE GENETICS, INC., priority 2015, published 2018).

Experiments:
Assay type in all cases: in vivo, mouse
RS4; 11 = conditions: C.B-17 SCID mice; treatment 1 day post implant; SGN-CD19A 0.3 mg/kg every four days x4; cyclophosphamide 30, vincristine 0.375, doxorubicin 2.475 mg/kg single iv; dexamethasone 15 mg/kg ip daily x5; terminated day 154
Method: (§1) Establishment of cell line xenografts: NALM-6 (DSMZ, Braunschweig, Germany) and RS4; 11 (ATCC, Manassas, Va.) cell lines were cultured in RPMI 1640 media, supplemented with Heat Inactivated Fetal Bovine serum (10%) and Penicillin/Streptomycin(1%) (Gibco, Grand Island, N.Y.). Cells were maintained in a humidified atmosphere at 37° C. and 5% CO2. For NALM-6 cell implantation, 1.0×10^5 cells in 200 ul PBS were injected into the tail vein of female C.B-17 SCID (Harlan Laboratories, Livermore, Calif.) mice. Mice were randomly assigned to treatment groups and treatment was given seven days post cell implant. For RS4; 11 cell implantation, 1.8×10^6 cells in 200 ul PBS were implanted into the tail vein of female C.B-17 SCID mice. Mice were randomly assigned to treatment groups. Treatment was given one day post cell implant. Treatment in the NALM-6 consisted of a single dose of SGN-CD19A at 1.0 mg/kg; in RS4; 11, SGN-CD19A was given once every four days for four doses at 0.3 mg/kg. Cyclophosphamide, 30 mg/kg (Baxter, Deefield, Ill.), Vincristine, 0.375 mg/kg (Hospira, Lake Forest, Ill.), and Doxorubicin, 2.475 mg/kg (Pfizer, NY, NY) were combined and administered as a single dose via intravenous injection into the lateral tail vein. Dexamethasone, 15 mg/kg (APP Pharmaceuticals, Schaumberg, Ill.), was given daily for five days via intraperitoneal injection. For each xenograft model, mice were monitored daily and body weights were collected at least once per week. Mice were removed from experiment at the onset of clinical disease signs (hind limb weakness, piloerection, hunched posture) or weight loss in excess of 20% of initial body weight.
(§2) Cell line-derived xenografts were used to investigate the median survival time for the combination of SGN-CD19A and CVAD, as well as SGN-CD19A and each of the components of CVAD. Either NALM-6 or Rs4; 11 cells were implanted into CB-17 SCID mice. Ten mice were assigned to each treatment group. […] SGN-CD19A and CVAD were administered at sub-optimal doses. Results are shown in FIGS. 4A and 4B and Tables 1 and 2. […] For the Rs4; 11 experiment, the experiment was terminated on day 154.

NALM-6 = conditions: C.B-17 SCID mice; treatment 7 days post implant; SGN-CD19A single dose 1.0 mg/kg; cyclophosphamide 30, vincristine 0.375, doxorubicin 2.475 mg/kg single iv; dexamethasone 15 mg/kg ip daily x5; survivors sacrificed at 133 days
Method: as §1, §2

[1] = test system: ALL patient donor 06343 xenograft; assay: Disease burden (blast cells) in bone marrow, patient-derived ALL xenograft donor 06343; conditions: for Disease Burden in Bone Marrow, CD45/10% Mean: NOD-scid IL2Rγ null mice, dosed at 38% blasts in sentinels, bone marrow counts day 14 post-dose
From the text: Establishment of patient-derived xenografts: NOD-scid IL2Rγ null mice were used as hosts for patient-derived xenografts. Twenty-four hours prior to cell implant, mice received 1.0 Gy irradiation using a Radsource 2000 irradiator (Radsource technologies, Suwanee, Ga.). Frozen bone marrow isolates of mononuclear cells from patients with acute lymphoblastic leukemia were obtained from […] (Alameda, Calif.). Cells were thawed in a warm water bath. After thaw, RPMI-1640 media was slowly added to the bone marrow isolate suspension. The cells were washed with PBS and centrifuged to remove DMSO in freezing media. After centrifugation, the cells were suspended in PBS. For, implantation, 3.6×10^6 cells were injected into the tail vein of female NOD-scid IL2Rγ null mice designated as donor, or passage 0 mice. Approximately 7 weeks after implant, mice were euthanized. Bone marrow and spleen were collected using sterile technique. Spleens were mechanically disrupted using a sterile syringe end and mesh filter. Connective tissues from spleens were filtered out using 40um filters. Splenocytes and bone marrow cells were treated with red blood cell buffer lysis (BD lysis buffer, BD biosciences, San Jose, Calif.) for 15 minutes at room temperature. A sample of the cells was utilized for confirmation of engraftment. The percentage of blast cells was determined by the number of CD45 FITC, CD19 PE-Cy.5 (BD Biosciences, San Jose, Calif.) CD10 APC (Biolegend, San Diego, Calif.) triple positive cells via flow cytometry (FACScalibur, BD Biosciences, San Jose, Calif.). The majority of the cells (passage 1) were placed into freezing media (90% Heat inactivated fetal bovine serum and 10% DMSO). Subsequent xenograft experiments utilized passage 1 cells. Cells were implanted in the same manner done for donor mice (passage 0 mice). Starting 14-21 days post implant, 2-3 sentinel mice were euthanized to determine the percentage blast cells in the bone marrow. Once the percentage of blast cells was at 25-50% of the bone marrow mononuclear cells mice were randomly placed into treatment groups. SGN-CD19A and non-specific ADC (also called h00-1269) were administered as a single intraperitoneal injection at 1.0, 3.0, or 10.0 mg/kg dose. Cyclophosphamide at 15 or 30 mg/kg (Baxter, Deefield, Ill.), Vincristine at 0.188 or 0.375 mg/kg (Hospira, Lake Forest, Ill.), and Doxorubicin at 1.24 or 2.475 mg/kg (Pfizer, NY, NY) were combined and administered as a single dose via intravenous injection into the lateral tail vein. Dexamethasone at 7.5 or 15 mg/kg (APP Pharmaceuticals, Schaumberg, Ill.) was given daily via intraperitoneal injection for five days. At pre-determined times post treatment, mice were euthanized for collection of bone marrow and determination of blast cell percentage via flow cytometry.
The response of human patient-derived ALL cells to single agent SGN-CD19A or CVAD was determined in mouse xenograft models. Bone marrow isolates from patients with ALL (donor 06343 and donor 90811) were used to establish xenografts in NOD-scid IL2Rgamma^null mice. After engraftment, patient-derived bone marrow cells were frozen and are referred to as passage 1 cells. Passage 1 cells were implanted into mice and assessed for presence of blast cells (CD45/CD10/CD19 positive cells). After blast cells were between 25-50% of the bone marrow, mice were placed in treatment groups (n=3 mice per time point). Mice were given either 1, 3, or 10 mg/kg of SGN-CD19A or 10 mg/kg of a non-specific ADC conjugated to MMAF (also called h00-1269). A maximum tolerated dose (MTD) of CVAD had previously been determined in the same mouse strain. Mice were given either CVAD at the MTD or at 50% of the MTD.
The response of human patient-derived ALL cells to the combination of SGN-CD19A and CVAD was also determined in the mouse xenograft model. Patient samples were engrafted as described above.

O=P1(N(CCCl)CCCl)NCCCO1 (stereo not shown) [Cyclophosphamide]
Median Survival (RS4; 11): 58 days
Median Survival (NALM-6): 38 days
Disease Burden in Bone Marrow, CD45/10% Mean [1]: 90%

C[C@@H]1C[C@H]2[C@@H]3CCC4=CC(=O)C=C[C@]4(C)[C@@]3(F)[C@@H](O)C[C@]2(C)[C@@]1(O)C(=O)CO [Dexamethasone]
Median Survival (RS4; 11): 80 days
Median Survival (NALM-6): 39 days
Disease Burden in Bone Marrow, CD45/10% Mean [1]: 82.5%

COc1cccc2c1C(=O)c1c(O)c3c(c(O)c1C2=O)C[C@@](O)(C(=O)CO)C[C@@H]3O[C@H]1C[C@H](N)[C@H](O)[C@H](C)O1 [Doxorubicin]
Median Survival (RS4; 11): 62 days
Median Survival (NALM-6): 44 days
Disease Burden in Bone Marrow, CD45/10% Mean [1]: 69.2%

CC[C@]1(O)C[C@H]2CN(CCc3c([nH]c4ccccc34)[C@@](C(=O)OC)(c3cc4c(cc3OC)N(C=O)[C@H]3[C@@](O)(C(=O)OC)[C@H](OC(C)=O)[C@]5(CC)C=CCN6CC[C@]43[C@@H]65)C2)C1 [Vincristine]
Median Survival (RS4; 11): 79 days
Median Survival (NALM-6): 47 days
Disease Burden in Bone Marrow, CD45/10% Mean [1]: 69.1%

B1: SGN-CD19A: CD19-directed antibody-drug conjugate: humanized antibody hBU12, maleimidocaproyl linker, monomethyl auristatin F (MMAF); average four drugs per antibody (conjugate)
VL: EIVLTQSPATLSLSPGERATLSCSASSSVSYMHWYQQKPGQAPRLLIYDTSKLASGIPARFSGSGSGTDFTLTISSLEPEDVAVYYCFQGSVYPFTFGQGTKLEIKR
VH: QVQLQESGPGLVKPSQTLSLTCTVSGGSISTSGMGVGWIRQHPGKGLEWIGHIWWDDDKRYNPALKSRVTISVDTSKNQFSLKLSSVTAADTAVYYCARMELWSYYFDYWGQGTLVTVSS
Median Survival (RS4; 11): 85 days
Median Survival (NALM-6): 55 days
Disease Burden in Bone Marrow, CD45/10% Mean [1]: 92.5%
single agent dose response, blast cells in the bone marrow ([1]; SGN-CD19A 1, 3 or 10 mg/kg, CVAD at MTD or 50% of MTD, FIGS. 2A, 2C): decreasing amounts of blast cells in the bone marrow
